In US12364709B2, “Bioavailable poly amines” (AMINEX THERAPEUTICS, INC., priority 2016, dated 2025):

Test: 28-day repeat-dose toxicity study, toxicokinetics of AMXT 1501 dicaprate
Type: in vivo, beagle dogs
Experimental: AMXT 1501 PK parameters were calculated for all AMXT 1501 dicaprate-dosed animals for the first dose (Day 1) and last dose (Day 28).

[1] = 8 mg/kg/day PO, DFMO 0, Day 1, M+F combined
[2] = 8 mg/kg/day PO, DFMO 0, Day 28, M+F combined
[3] = 8 mg/kg/day PO, DFMO 50 mg/kg/day, Day 28, M+F combined
[4] = 8 mg/kg/day PO, DFMO 200 mg/kg/day, Day 1, M+F combined
[5] = 16 mg/kg/day PO, DFMO 0, Day 1, M+F combined
[6] = 16 mg/kg/day PO, DFMO 0, Day 28, M+F combined
[7] = 16 mg/kg/day PO, DFMO 50 mg/kg/day, Day 28, M+F combined
[8] = 16 mg/kg/day PO, DFMO 200 mg/kg/day, Day 1, M+F combined
[9] = 32 mg/kg/day PO, DFMO 0, Day 1, M+F combined
[10] = 32 mg/kg/day PO, DFMO 0, Day 28, M+F combined

Structure (SMILES): CCCCCCCCCCCCCCCC(=O)NCCCC[C@@H](N)C(=O)NCCCNCCCCNCCCN [AMXT 1501 dicaprate]
- AUC0-24 hr Max. [1]: 2810 ng·h/mL
- AUC0-24 hr Min. [1]: 374 ng·h/mL
- Cmax Max. [1]: 158 ng/mL
- Cmax Min. [1]: 30.8 ng/mL
- Tmax Max. [1]: 12.0 h
- Tmax Min. [1]: 2.00 h
- AUC0-24 hr Max. [2]: 5230 ng·h/mL
- AUC0-24 hr Min. [2]: 249 ng·h/mL
- AUC0-t Max. [2]: 9470 ng·h/mL
- AUC0-t Min. [2]: 308 ng·h/mL
- AUC0-∞ Min. [2]: 328 ng·h/mL
- Cmax Max. [2]: 360 ng/mL
- Cmax Min. [2]: 17.7 ng/mL
- Tmax Min. [2]: 0.00 h
- t1/2 Max. [2]: 28.8 h
- t1/2 Min. [2]: 12.6 h
- AUC0-24 hr Max. [3]: 4230 ng·h/mL
- AUC0-24 hr Min. [3]: 366 ng·h/mL
- AUC0-t Max. [3]: 5010 ng·h/mL
- AUC0-t Min. [3]: 1040 ng·h/mL
- AUC0-∞ Max. [3]: 5120 ng·h/mL
- AUC0-∞ Min. [3]: 1060 ng·h/mL
- Cmax Max. [3]: 275 ng/mL
- Cmax Min. [3]: 48.0 ng/mL
- Tmax Max. [3]: 12.0 h
- Tmax Min. [3]: 0.00 h
- t1/2 Max. [3]: 24.9 h
- t1/2 Min. [3]: 8.85 h
- AUC0-24 hr Max. [4]: 2670 ng·h/mL
- AUC0-24 hr Min. [4]: 323 ng·h/mL
- Cmax Max. [4]: 182 ng/mL
- Cmax Min. [4]: 35.2 ng/mL
- Tmax Max. [4]: 12.0 h
- AUC0-24 hr Max. [5]: 6350 ng·h/mL
- AUC0-24 hr Min. [5]: 104 ng·h/mL
- Cmax Max. [5]: 408 ng/mL
- Cmax Min. [5]: 10.4 ng/mL
- Tmax Max. [5]: 12.0 h
- Tmax Min. [5]: 2.00 h
- AUC0-24 hr Max. [6]: 7800 ng·h/mL
- AUC0-24 hr Min. [6]: 1320 ng·h/mL
- AUC0-t Max. [6]: 10800 ng·h/mL
- AUC0-t Min. [6]: 4870 ng·h/mL
- AUC0-∞ Max. [6]: 10800 ng·h/mL
- AUC0-∞ Min. [6]: 4910 ng·h/mL
- Cmax Max. [6]: 408 ng/mL
- Cmax Min. [6]: 109 ng/mL
- Tmax Max. [6]: 12.0 h
- Tmax Min. [6]: 0.00 h
- t1/2 Max. [6]: 35.8 h
- t1/2 Min. [6]: 10.1 h
- AUC0-24 hr Max. [7]: 10800 ng·h/mL
- AUC0-24 hr Min. [7]: 1480 ng·h/mL
- AUC0-t Max. [7]: 22300 ng·h/mL
- AUC0-t Min. [7]: 3410 ng·h/mL
- AUC0-∞ Max. [7]: 22600 ng·h/mL
- AUC0-∞ Min. [7]: 3610 ng·h/mL
- Cmax Max. [7]: 578 ng/mL
- Cmax Min. [7]: 98.4 ng/mL
- Tmax Max. [7]: 12.0 h
- Tmax Min. [7]: 0.00 h
- t1/2 Max. [7]: 69.4 h
- t1/2 Min. [7]: 26.4 h
- AUC0-24 hr Max. [8]: 4280 ng·h/mL
- AUC0-24 hr Min. [8]: 94.4 ng·h/mL
- Cmax Max. [8]: 263 ng/mL
- Cmax Min. [8]: 7.27 ng/mL
- Tmax Max. [8]: 12.0 h
- AUC0-24 hr Max. [9]: 6590 ng·h/mL
- AUC0-24 hr Min. [9]: 999 ng·h/mL
- Cmax Max. [9]: 353 ng/mL
- Cmax Min. [9]: 58.2 ng/mL
- Tmax Max. [9]: 12.0 h
- Tmax Min. [9]: 2.00 h
- AUC0-24 hr Max. [10]: 16600 ng·h/mL
- AUC0-24 hr Min. [10]: 2830 ng·h/mL
- AUC0-t Max. [10]: 41500 ng·h/mL
- AUC0-t Min. [10]: 8730 ng·h/mL
- AUC0-∞ Max. [10]: 41700 ng·h/mL
- AUC0-∞ Min. [10]: 8810 ng·h/mL
- Cmax Max. [10]: 1110 ng/mL
- Cmax Min. [10]: 190 ng/mL
- Tmax Max. [10]: 12.0 h
- Tmax Min. [10]: 0.00 h
- t1/2 Max. [10]: 61.1 h
- t1/2 Min. [10]: 27.3 h
- dose-proportionality of plasma levels of AMXT 1501 (8, 16 and 32 mg/kg/day, Day 1 and Day 28, enterically-coated tablets): approximately dose-proportional increases
- half-life at 28 days (beagle, dog, plasma, oral, Day 28, all dose groups, read-out: Day 28 individual animal AMXT 1501 t1/2 values): 8.85 to 69.4 h
- AUC(0-t) (both sexes, beagle, dog, plasma, po, 8 mg/kg/day, 8 mg/kg/day PO, DFMO 0, Day 1, M+F combined, read-out: AUC0-24 hr Mean): 1330 ng·h/mL
